Assay results taken from article PMC6269118, “Populene D Analogues: Design, Concise Synthesis and Antiproliferative Activity” (Molecules, 2012).
In brackets after ≈: the same amount, converted by molar mass. Where two headings read alike, the source gives them in different places.

Assays:
[1] = system: U251 (glioma) cells; assay: Antiproliferative sulforhodamine B assay, U251; format: cell-based; details: Homo sapiens, U-251, 48 h treatment, SRB; for IC100: read-out: Total growth inhibition (TGI)
Procedure: (§1) The in vitro antiproliferative activity of populene analogues 2a–e and 3a–e was investigated toward nine human tumor cell lines [CNS (U251), breast (MCF-7), ovarian (NCI-ADR/RES, OVCAR-03), renal (786-0), non-small cell lung (NCI-H460), prostate (PC-3), colon (HT-29) and leukemia (k-562)] and one human normal cell line (HaCat, human keratinocytes). The populene D analogues were tested at concentrations between 0.25 and 250 µg/mL and doxorubicin (DOX 0.025–25 µg/mL) was used as positive control. […] To analyze the GI50 parameter, mean log GI50 was calculated by conversion of the GI50 values for each tumor cell line tested (not including the normal cell line HaCat) against a test compound and then these values were averaged.
(§2) Stock cultures were grown in 5 mL of RPMI 1640 (GIBCO BRL, Life Technologies) supplemented with 5% of fetal bovine serum. Penicillin:streptomycin (1,000 μg mL^−1:1,000 UI mL^‑1, 1 mL L^−1) was added to the experimental cultures.
(§3) Afterwards cells were fixed with 50% trichloroacetic acid and cell proliferation determined by spectrophotometric quantification (540 nm) of cellular protein content using sulforhodamine B assay[20]. Doxorubicin (0.025–25 mg/mL) was used as positive control. Three measurements were obtained at the beginning of incubation (time zero, T0) and 48 h post-incubation for compound-free (C) and tested (T) cells. Cell proliferation was determined according to the equation 100 × [(T − T0)/C − T0], for T0 < T ≤ C, and 100 × [(T − T0)/T0], for T ≤ T0 and a concentration-response curve for each cell line was plotted and, from these curves, GI50 (concentration causing 50% growth inhibition) and TGI (concentration that promotes total growth inhibition) were determined by means of non-linear regression analysis using software ORIGIN 8.0 (OriginLab Corporation) [20, 21] The average activity (mean of log GI50) of each compound tested was also determined using MS Excel software.

[2] = system: MCF-7 (breast) cells; assay: Antiproliferative sulforhodamine B assay, MCF-7; format: cell-based; details: Homo sapiens, MCF7, MCF-7 mammary, 48 h treatment, SRB; for IC100: read-out: Total growth inhibition (TGI)
Procedure: as §1, §2, §3

[3] = system: HaCat (immortalized human keratinocytes); assay: Antiproliferative sulforhodamine B assay, HaCat normal cell line; format: cell-based; details: 48 h treatment, SRB
Procedure: as §1, §2, §3

[4] = as above; format: cell-based, human; details: human; HaCat normal immortalized keratinocytes, 48 h treatment, SRB
Procedure: as §1, §2, §3

[5] = system: NCI-H460 (lung, non-small cells) cells; assay: Antiproliferative sulforhodamine B assay, NCI-H460; details: for GI50: Homo sapiens, NCI-H460, 48 h; for Total growth inhibition (TGI): NCI-H460 lung, 48 h treatment, SRB
Procedure: (§4) The populene D analogues were tested at concentrations between 0.25 and 250 µg/mL and doxorubicin (DOX 0.025–25 µg/mL) was used as positive control. […] To analyze the GI50 parameter, mean log GI50 was calculated by conversion of the GI50 values for each tumor cell line tested (not including the normal cell line HaCat) against a test compound and then these values were averaged.
as §2, §3

[6] = system: 786-0 (renal) cells; assay: Antiproliferative sulforhodamine B assay, 786-0; format: cell-based; details: Homo sapiens, 786-0 kidney, 48 h treatment, SRB; for IC100: read-out: Total growth inhibition (TGI)
Procedure: as §1, §2, §3

[7] = system: HT-29 (colon) cells; assay: Antiproliferative sulforhodamine B assay, HT-29; format: cell-based; details: Homo sapiens, 48 h treatment, SRB; for IC100: read-out: Total growth inhibition (TGI)
Procedure: as §4, §2, §3

[8] = system: nine human tumor cell lines; assay: Average antiproliferative activity over the tumor cell line panel (NCI criteria); format: cell-based; details: for GI50: Homo sapiens, 48 h; for Cytostatic activity classified in words by NCI criteria on mean logGI50: weak 1.1-1.5, moderate 0-1.1, potent <0, inactive >1.5
Procedure: as §1
(§5) Cells in 96-well plates (100 μL cells/well) were exposed to various concentrations of compounds 2a–d and 3a–d diluted in DMSO (0.25, 2.5, 25 and 250 μg/mL) at 37 °C, 5% of CO2 for 48 h. […] Afterwards cells were fixed with 50% trichloroacetic acid and cell proliferation determined by spectrophotometric quantification (540 nm) of cellular protein content using sulforhodamine B assay[20]. Doxorubicin (0.025–25 mg/mL) was used as positive control. Three measurements were obtained at the beginning of incubation (time zero, T0) and 48 h post-incubation for compound-free (C) and tested (T) cells. Cell proliferation was determined according to the equation 100 × [(T − T0)/C − T0], for T0 < T ≤ C, and 100 × [(T − T0)/T0], for T ≤ T0 and a concentration-response curve for each cell line was plotted and, from these curves, GI50 (concentration causing 50% growth inhibition) and TGI (concentration that promotes total growth inhibition) were determined by means of non-linear regression analysis using software ORIGIN 8.0 (OriginLab Corporation) [20, 21] The average activity (mean of log GI50) of each compound tested was also determined using MS Excel software.

[9] = system: NCI-ADR/RES (ovarian expressing phenotype multiple drugs resistance) cells; assay: Antiproliferative sulforhodamine B assay, NCI-ADR/RES; format: cell-based; details: Homo sapiens, NCI-ADR/RES drug resistant ovary, 48 h treatment, SRB; for IC100: read-out: Total growth inhibition (TGI)
Procedure: as §1, §2, §3

[10] = system: OVCAR-3 (ovarian) cells; assay: Antiproliferative sulforhodamine B assay, OVCAR-3; format: cell-based; details: Homo sapiens, OVCAR-3 ovary, 48 h treatment, SRB; for IC100: read-out: Total growth inhibition (TGI)
Procedure: as §4, §2, §3

[11] = system: PC-3 (prostate) cells; assay: Antiproliferative sulforhodamine B assay, PC-3; format: cell-based; details: Homo sapiens, Prostate cell, 48 h treatment, SRB; for IC100: read-out: Total growth inhibition (TGI)
Procedure: as §4, §2, §3

[12] = system: K-562 (leukemia) cells; assay: Antiproliferative sulforhodamine B assay, K-562; format: cell-based; details: Homo sapiens, K562, 48 h treatment, SRB; for IC100: read-out: Total growth inhibition (TGI)
Procedure: as §1, §5

[13] = average of logGI50 (GI50 in μg/mL) over tumor cell lines tested, not including HaCat, read-out: Mean logGI50 (converted)
[14] = class symbol by NCI's criteria on mean logGI50, read-out: Mean logGI50 activity class (NCI's criteria)

Row | GI50 [1] [µg/mL] | GI50 [2] [µg/mL] | GI50 [6] [µg/mL] | GI50 [7] [µg/mL] | melting point [°C] | GI50 [10] [µg/mL] | GI50 [11] [µg/mL] | GI50 [12] [µg/mL] | SMILES | IC100 [1] [µg/mL] | IC100 [2] [µg/mL] | Total growth inhibition (TGI) [3] [µg/mL] | GI50 at 48 h [4] [µg/mL] | IC100 [6] [µg/mL] | IC100 [7] [µg/mL] | GI50 [8, 13] [µg/mL] | GI50 [8, 14] [µg/mL] | GI50 [9] [µg/mL] | IC100 [9] [µg/mL] | IC100 [10] [µg/mL] | IC100 [11] [µg/mL] | other results
1 | 19.6 (≈ 75.3 µM) | 5.5 (≈ 21.1 µM) | 5.6 (≈ 21.5 µM) | 19.5 (≈ 74.9 µM) | 122 to 123 | 3.9 (≈ 15 µM) | – | – | CC1COC(C)(C)C2=C1c1cc(O)c(O)cc1CC2 (centres unmarked) [3e, 1,4,4-Trimethyl-1,4,5,6-tetrahydro-2H-benzo[f]isochromene-8,9-diol] | 28.4 | 41.6 | >250 | 4.2 (≈ 16.1 µM) | 19.4 | 39 | 8.13 (≈ 31.2 µM) | 1 to 12.6 (≈ 3.84 to 48.4 µM) | 5.7 (≈ 21.9 µM) | > 250 | 34.4 | – | GI50 [5]: 17.4 µg/mL (≈ 66.8 µM); Total growth inhibition (TGI) [5]: >250 µg/mL; Cytostatic activity classified in words by NCI criteria on mean logGI50 [8]: moderate
2 | > 250 | > 250 | 37.3 (≈ 153 µM) | > 250 | 139.2 to 140.3 | > 250 | > 250 | > 250 | CC1COC(C)(C)C2=C1c1cccc(O)c1CC2 (centres unmarked) [3a, 1,4,4-Trimethyl-1,4,5,6-tetrahydro-2H-benzo[f]isochromen-7-ol] | > 250 | > 250 | >250 | > 250 | > 250 | > 250 | > 209 | > 31.6 | > 250 | > 250 | > 250 | > 250 | GI50 [5]: > 250 µg/mL; Total growth inhibition (TGI) [5]: >250 µg/mL; IC100 [12]: > 250 µg/mL; Cytostatic activity classified in words by NCI criteria on mean logGI50 [8]: inactive
3 | 46.3 (≈ 189 µM) | 108 (≈ 441 µM) | 36.8 (≈ 151 µM) | 78.4 (≈ 321 µM) | 199 to 201 | > 250 | > 250 | 41.2 (≈ 169 µM) | CC1COC(C)(C)C2=C1c1ccc(O)cc1CC2 (centres unmarked) [3b, 1,4,4-Trimethyl-1,4,5,6-tetrahydro-2H-benzo[f]isochromen-8-ol] | > 250 | > 250 | >250 | > 250 | > 250 | > 250 | > 100 | > 31.6 | > 250 | > 250 | > 250 | > 250 | GI50 [5]: 41.4 µg/mL (≈ 169 µM); Total growth inhibition (TGI) [5]: >250 µg/mL; IC100 [12]: > 250 µg/mL; Cytostatic activity classified in words by NCI criteria on mean logGI50 [8]: inactive
4 | 27.8 (≈ 114 µM) | 24.7 (≈ 101 µM) | 24.6 (≈ 101 µM) | 22.9 (≈ 93.7 µM) | 160 to 162 | 1.8 (≈ 7.37 µM) | 24.5 (≈ 100 µM) | 8.7 (≈ 35.6 µM) | CC1COC(C)(C)C2=C1c1cc(O)ccc1CC2 (centres unmarked) [3c, 1,4,4-Trimethyl-1,4,5,6-tetrahydro-2H-benzo[f]isochromen-9-ol] | 67.9 | 45 | >250 | 3.6 (≈ 14.7 µM) | 43 | 53.3 | 14.1 (≈ 57.8 µM) | 12.6 to 31.6 (≈ 51.5 to 129 µM) | 25 (≈ 102 µM) | 200 | 31.5 | 51.8 | GI50 [5]: 24.2 µg/mL (≈ 99 µM); Total growth inhibition (TGI) [5]: 45.9 µg/mL; IC100 [12]: 39.2 µg/mL; Cytostatic activity classified in words by NCI criteria on mean logGI50 [8]: weak
5 | 23.1 (≈ 84.2 µM) | 24.6 (≈ 89.7 µM) | 24.1 (≈ 87.8 µM) | 6 (≈ 21.9 µM) | 141 to 143 | 24.3 (≈ 88.6 µM) | – | – | COc1cc2c(cc1O)C1=C(CC2)C(C)(C)OCC1C (centres unmarked) [3d, 8-Methoxy-1,4,4-trimethyl-1,4,5,6-tetrahydro-2H-benzo[f]isochromen-9-ol] | 45.9 | 58.2 | 160.7 | 4.2 (≈ 15.3 µM) | 47.8 | 32.3 | 14.5 (≈ 52.7 µM) | 12.6 to 31.6 (≈ 45.9 to 115 µM) | 5.2 (≈ 19 µM) | 37.6 | 69.9 | – | GI50 [5]: 45.1 µg/mL (≈ 164 µM); Total growth inhibition (TGI) [5]: >250 µg/mL; Cytostatic activity classified in words by NCI criteria on mean logGI50 [8]: weak

More lines, now with the values behind:

Row | SMILES | GI50 [1] [µg/mL] | GI50 [2] [µg/mL] | GI50 [6] [µg/mL] | GI50 [7] [µg/mL] | melting point [°C] | GI50 [10] [µg/mL] | GI50 [11] [µg/mL] | GI50 [12] [µg/mL] | IC100 [1] [µg/mL] | IC100 [2] [µg/mL] | Total growth inhibition (TGI) [3] [µg/mL] | GI50 at 48 h [4] [µg/mL] | IC100 [6] [µg/mL] | IC100 [7] [µg/mL] | GI50 [8, 13] [µg/mL] | GI50 [8, 14] [µg/mL] | GI50 [9] [µg/mL] | IC100 [9] [µg/mL] | IC100 [10] [µg/mL] | IC100 [11] [µg/mL] | other results
6 | COc1cccc2c1CCC1=C2C(C)COC1(C)C (centres unmarked) [2a, 4,5,6-Tetrahydro-7-methoxy-1,4,4-trimethyl-1H-benzo[f]isochromene] | 25 (≈ 96.8 µM) | 25 (≈ 96.8 µM) | 25 (≈ 96.8 µM) | 25 (≈ 96.8 µM) | 65 to 67 | 25 (≈ 96.8 µM) | 25 (≈ 96.8 µM) | 3.1 (≈ 12 µM) | 52 | 51.3 | 66.9 | 25 (≈ 96.8 µM) | 50.6 | 39.1 | 14.8 (≈ 57.2 µM) | 12.6 to 31.6 (≈ 48.7 to 122 µM) | 25 (≈ 96.8 µM) | 83.5 | 52.3 | 64.6 | IC100 [12]: > 250 µg/mL
7 | COc1ccc2c(c1)C1=C(CC2)C(C)(C)OCC1C (centres unmarked) [2c, 2,4,5,6-Tetrahydro-9-methoxy-1,4,4-trimethyl-1H-benzo[f]isochromene] | 25 (≈ 96.8 µM) | 25 (≈ 96.8 µM) | 25 (≈ 96.8 µM) | 25 (≈ 96.8 µM) | – | 25 (≈ 96.8 µM) | 25 (≈ 96.8 µM) | 25 (≈ 96.8 µM) | 40 | 45.3 | 32.0 | 25 (≈ 96.8 µM) | 36.1 | 41.8 | 16.2 (≈ 62.8 µM) | 12.6 to 31.6 (≈ 48.7 to 122 µM) | 25 (≈ 96.8 µM) | 66.3 | 67 | 69.2 | IC100 [12]: 128 µg/mL
8 | COc1cc2c(cc1OC)C1=C(CC2)C(C)(C)OCC1C (centres unmarked) [2d, 2,4,5,6-Tetrahydro-8,9-dimethoxy-1,4,4-trimethyl-1H-benzo[f]isochromene] | > 250 | 38.8 (≈ 135 µM) | 45.8 (≈ 159 µM) | 23.1 (≈ 80.1 µM) | 115 to 117 | 193 (≈ 671 µM) | 71.4 (≈ 248 µM) | 84.6 (≈ 293 µM) | > 250 | > 250 | >250 | > 250 | > 250 | > 250 | > 50.1 | > 31.6 | 101 (≈ 349 µM) | > 250 | > 250 | > 250 | IC100 [12]: > 250 µg/mL; Cytostatic activity classified in words by NCI criteria on mean logGI50 [8]: inactive
9 | COc1ccc2c(c1)CCC1=C2C(C)COC1(C)C (centres unmarked) [2b, 2,4,5,6-Tetrahydro-8-methoxy-1,4,4-trimethyl-1H-benzo[f]isochromene] | 24.6 (≈ 95.2 µM) | 23.2 (≈ 89.8 µM) | 25.5 (≈ 98.7 µM) | 6.6 (≈ 25.5 µM) | 89.5 to 91.3 | 24.5 (≈ 94.8 µM) | 27 (≈ 105 µM) | 9.6 (≈ 37.2 µM) | 53.5 | 46.9 | 54.4 | 26.1 (≈ 101 µM) | 44 | 33 | 15.1 (≈ 58.6 µM) | 12.6 to 31.6 (≈ 48.7 to 122 µM) | 26.8 (≈ 104 µM) | 104 | 56.2 | 41.4 | IC100 [12]: > 250 µg/mL
10 | COc1cccc2c1C(=O)c1c(O)c3c(c(O)c1C2=O)C[C@@](O)(C(=O)CO)C[C@@H]3O[C@H]1C[C@H](N)[C@H](O)[C@H](C)O1 [Doxorubicine, doxorubicin, reference compound] | 0.062 (≈ 0.114 µM) | 0.21 (≈ 0.386 µM) | 0.04 (≈ 0.0736 µM) | 0.22 (≈ 0.405 µM) | – | 0.26 (≈ 0.478 µM) | 0.27 (≈ 0.497 µM) | 0.4 (≈ 0.736 µM) | 1.1 | 8.8 | 0.67 | 0.23 (≈ 0.423 µM) | 0.62 | 25 | 0.166 (≈ 0.305 µM) | < 1 | 1.3 (≈ 2.39 µM) | 25 | 3.9 | 4.4 | GI50 [5]: < 0.025 µg/mL; Total growth inhibition (TGI) [5]: 0.025 µg/mL; IC100 [12]: 25 µg/mL
